Source: patent US10093630B2, “Pyrazole compounds and methods of making and using same” (ABIDE THERAPEUTICS, INC., priority 2014, dated 2018)
Read-outs that look alike come from different tables or passages of the source.

Assays:
Assay in all cases: In vitro competitive activity-based protein profiling (gel-based, FP-Rh or HT-01 probe)
Type in all cases: biochemical
ABHD6 = molecular target: T1, ABHD6 (Mus musculus, UniProt Q8R2Y0); conditions: for inhibition at 1 µM: 1 μM inhibitor, read-out: % Inhibition at 1 μM, C = ABHD6; for inhibition at 10 µM: 10 μM inhibitor, read-out: % Inhibition at 10 μM, C = ABHD6
T1 construct: Proteomes (mouse brain membrane fraction or cell lysates); from tissue; host or cells: mouse brain membrane fraction (or cell lysates, not specified)
T1 sequence (Q8R2Y0 1-336): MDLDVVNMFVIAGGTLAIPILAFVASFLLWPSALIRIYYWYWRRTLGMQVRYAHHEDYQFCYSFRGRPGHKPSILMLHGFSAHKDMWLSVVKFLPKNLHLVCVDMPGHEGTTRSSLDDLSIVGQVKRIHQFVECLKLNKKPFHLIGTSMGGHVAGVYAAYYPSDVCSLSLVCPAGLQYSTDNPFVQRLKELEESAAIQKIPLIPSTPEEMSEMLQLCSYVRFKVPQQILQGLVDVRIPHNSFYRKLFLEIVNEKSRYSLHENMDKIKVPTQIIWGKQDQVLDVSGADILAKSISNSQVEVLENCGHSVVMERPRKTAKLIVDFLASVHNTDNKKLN
Method in brief: (§1)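 Steps: inhibitor dilutions + proteome (1.0 mg/mL), 30 min, 37° C; add FP-Rh or HT-01 (50 μM DMSO stock), 30 min, 37° C; quench in SDS buffer; SDS-PAGE; gel imaging; band densitometry.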

FAAH = molecular target: T2, FAAH (Mus musculus, UniProt O08914); conditions: for inhibition at 1 µM: 1 μM inhibitor, read-out: % Inhibition at 1 μM, B = FAAH; for inhibition at 10 µM: 10 μM inhibitor, read-out: % Inhibition at 10 μM, B = FAAH
T2 construct: Proteomes (mouse brain membrane fraction or cell lysates); from tissue; host or cells: mouse brain membrane fraction (or cell lysates, not specified)
T2 sequence (O08914 1-579): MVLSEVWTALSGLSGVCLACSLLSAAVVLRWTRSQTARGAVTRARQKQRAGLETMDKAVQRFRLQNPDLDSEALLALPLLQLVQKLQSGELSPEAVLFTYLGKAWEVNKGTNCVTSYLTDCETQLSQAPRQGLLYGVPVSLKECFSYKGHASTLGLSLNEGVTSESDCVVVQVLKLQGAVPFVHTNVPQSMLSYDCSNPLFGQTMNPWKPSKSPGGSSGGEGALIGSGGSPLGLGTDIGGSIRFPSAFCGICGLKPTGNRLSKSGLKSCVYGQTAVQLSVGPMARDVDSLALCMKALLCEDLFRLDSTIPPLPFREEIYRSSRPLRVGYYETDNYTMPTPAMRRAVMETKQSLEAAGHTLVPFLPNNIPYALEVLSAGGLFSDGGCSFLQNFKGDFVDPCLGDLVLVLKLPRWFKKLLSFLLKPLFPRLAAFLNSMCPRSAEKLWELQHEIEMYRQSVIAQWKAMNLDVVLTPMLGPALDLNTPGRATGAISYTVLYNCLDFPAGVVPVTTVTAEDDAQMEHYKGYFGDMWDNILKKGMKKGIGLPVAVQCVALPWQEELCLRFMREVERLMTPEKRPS
Method in brief: as §1

MAGL = molecular target: T3, MAGL (Mus musculus, UniProt O35678); conditions: for inhibition at 1 µM: 1 μM inhibitor; for inhibition at 10 µM: 10 μM inhibitor
T3 construct: Proteomes (mouse brain membrane fraction or cell lysates); from tissue; host or cells: mouse brain membrane fraction (or cell lysates, not specified)
T3 sequence (O35678 1-303): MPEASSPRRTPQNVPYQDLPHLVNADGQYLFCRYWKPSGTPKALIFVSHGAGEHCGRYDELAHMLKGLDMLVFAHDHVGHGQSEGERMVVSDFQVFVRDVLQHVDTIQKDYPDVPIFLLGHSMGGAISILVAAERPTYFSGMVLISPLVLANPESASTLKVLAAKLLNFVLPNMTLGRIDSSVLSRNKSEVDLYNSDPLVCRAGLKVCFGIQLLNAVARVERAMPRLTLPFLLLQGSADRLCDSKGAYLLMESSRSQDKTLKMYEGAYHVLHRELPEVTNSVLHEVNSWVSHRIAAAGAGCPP
Method in brief: as §1

PLA2G7 = molecular target: T4, PLA2G7 (Mus musculus, UniProt Q60963); conditions: for inhibition at 1 µM: 1 μM inhibitor, read-out: % Inhibition at 1 μM, D = PLA2G7; for inhibition at 10 µM: 10 μM inhibitor, read-out: % Inhibition at 10 μM, D = PLA2G7
T4 construct: Proteomes (mouse brain membrane fraction or cell lysates); from tissue; host or cells: mouse brain membrane fraction (or cell lysates, not specified)
T4 sequence (Q60963 22-440): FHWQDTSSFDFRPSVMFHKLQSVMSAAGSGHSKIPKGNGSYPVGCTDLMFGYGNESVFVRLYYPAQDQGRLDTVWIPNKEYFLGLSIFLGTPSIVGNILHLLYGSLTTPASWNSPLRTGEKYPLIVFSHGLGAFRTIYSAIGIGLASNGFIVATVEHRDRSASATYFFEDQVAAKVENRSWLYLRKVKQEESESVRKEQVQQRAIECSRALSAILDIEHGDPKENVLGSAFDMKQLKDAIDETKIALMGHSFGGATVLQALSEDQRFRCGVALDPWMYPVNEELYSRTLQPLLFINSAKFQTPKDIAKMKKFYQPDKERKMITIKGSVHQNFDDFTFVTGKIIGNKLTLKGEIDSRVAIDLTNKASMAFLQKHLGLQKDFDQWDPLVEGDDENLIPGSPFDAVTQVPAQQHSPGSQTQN
Method in brief: as §1

Row | SMILES | inhibition at 1 µM (ABHD6) [%] | inhibition at 10 µM (ABHD6) [%] | inhibition at 1 µM (FAAH) [%] | inhibition at 10 µM (FAAH) [%] | inhibition at 1 µM (MAGL) [%] | inhibition at 10 µM (MAGL) [%] | inhibition at 1 µM (PLA2G7) [%] | inhibition at 10 µM (PLA2G7) [%] | IC50 (MAGL; mouse brain membrane fraction or cell lysates, 30 min preincubation at 37° C., read-out: Mouse (IC50 value, nM) MAGL) [nM] | IC50 (ABHD6; mouse brain membrane fraction or cell lysates, 30 min preincubation at 37° C., read-out: Mouse (IC50 value, nM) ABHD6) [nM] | inhibition at 1 µM (ABHD6; gel-based competitive ABPP) [%] | inhibition at 10 µM (ABHD6; gel-based competitive ABPP) [%] | inhibition at 1 µM (FAAH; gel-based competitive ABPP) [%] | inhibition at 10 µM (FAAH; gel-based competitive ABPP) [%] | inhibition at 1 µM (MAGL; gel-based competitive ABPP) [%] | inhibition at 10 µM (MAGL; gel-based competitive ABPP) [%] | inhibition at 1 µM (PLA2G7; gel-based competitive ABPP) [%] | inhibition at 10 µM (PLA2G7; gel-based competitive ABPP) [%]
1 | CS(=O)(=O)N1CCCN(C(=O)n2cc(Cl)cn2)CC1 [Example 189, (4-Chloro-1H-pyrazol-1-yl)(4-(methylsulfonyl)-1,4-diazepan-1-yl)methanone] | > 75 | > 75 | > 75 | > 75 | < 25 | 25 to 75 | < 25 | < 25 | – | – | – | – | – | – | – | – | – | –
2 | O=C(N1CCN(Cc2ccc3ccccc3c2)CC1)n1cccn1 [Example 10, (4-(naphthalen-2-ylmethyl)piperazin-1-yl)(1H-pyrazol-1-yl)methanone] | > 75 | > 75 | > 75 | > 75 | > 75 | > 75 | < 25 | < 25 | < 100 | – | – | – | – | – | – | – | – | –
3 | CC(=O)N(C)CCN(C)C(=O)n1cc(Cl)cn1 [Example 193, 4-Chloro-N-methyl-N-(2-(N-methylacetamido)ethyl)-1H-pyrazole-1-carboxamide] | – | < 25 | – | < 25 | – | < 25 | – | < 25 | – | – | – | – | – | – | – | – | – | –
4 | CN(Cc1cccc(-c2ccncc2)c1)C(=O)n1cc(C(F)(F)F)cn1 [Example 222, N-methyl-N-(3-(pyridin-4-yl)benzyl)-4-(trifluoromethyl)-1H-pyrazole-1-carboxamide] | > 75 | > 75 | > 75 | > 75 | > 75 | > 75 | 25 to 75 | < 25 | – | – | – | – | – | – | – | – | – | –
5 | O=C(c1cnn(C(=O)N2CCN(Cc3ccc(-c4ccccc4)cc3Cl)CC2)c1)N1CCCC1 [Example 289, (4-((3-Chlorobiphenyl-4-yl)methyl)piperazin-1-yl)(4-(pyrrolidine-1-carbonyl)-1H-pyrazol-1-yl)methanone] | – | – | – | – | – | – | – | – | – | – | > 75 | > 75 | > 75 | > 75 | > 75 | > 75 | > 75 | > 75

Other lines, results leading:

Row | inhibition at 1 µM (ABHD6) [%] | inhibition at 10 µM (ABHD6) [%] | inhibition at 1 µM (FAAH) [%] | inhibition at 10 µM (FAAH) [%] | inhibition at 1 µM (MAGL) [%] | inhibition at 10 µM (MAGL) [%] | inhibition at 1 µM (PLA2G7) [%] | inhibition at 10 µM (PLA2G7) [%] | IC50 (MAGL; mouse brain membrane fraction or cell lysates, 30 min preincubation at 37° C., read-out: Mouse (IC50 value, nM) MAGL) [nM] | IC50 (ABHD6; mouse brain membrane fraction or cell lysates, 30 min preincubation at 37° C., read-out: Mouse (IC50 value, nM) ABHD6) [nM] | inhibition at 1 µM (ABHD6; gel-based competitive ABPP) [%] | inhibition at 10 µM (ABHD6; gel-based competitive ABPP) [%] | inhibition at 1 µM (FAAH; gel-based competitive ABPP) [%] | inhibition at 10 µM (FAAH; gel-based competitive ABPP) [%] | inhibition at 1 µM (MAGL; gel-based competitive ABPP) [%] | inhibition at 10 µM (MAGL; gel-based competitive ABPP) [%] | inhibition at 1 µM (PLA2G7; gel-based competitive ABPP) [%] | inhibition at 10 µM (PLA2G7; gel-based competitive ABPP) [%] | SMILES
6 | 25 to 75 | > 75 | < 25 | 25 to 75 | > 75 | > 75 | < 25 | > 75 | – | – | – | – | – | – | – | – | – | – | Cc1cnn(C(=O)N2CCN(Cc3ccc(-c4ccccc4)cc3)CC2)c1 [Example 23, (4-([1,1′-Biphenyl]-4-ylmethyl)piperazin-1-yl)(4-methyl-1H-pyrazol-1-yl)methanone]
7 | 25 to 75 | > 75 | > 75 | > 75 | < 25 | > 75 | < 25 | < 25 | – | – | – | – | – | – | – | – | – | – | O=C(N1CCCN(Cc2ccccc2)CC1)n1cc(Cl)cn1 [Example 191, (4-Benzyl-1,4-diazepan-1-yl)(4-chloro-1H-pyrazol-1-yl)methanone]
8 | > 75 | > 75 | – | > 75 | – | < 25 | > 75 | > 75 | – | 100 to 1000 | – | – | – | – | – | – | – | – | O=C(N1CCN(Cc2nccs2)CC1)n1cc(-c2ccccc2)cn1 [Example 63, (4-Phenyl-1H-pyrazol-1-yl)(4-(thiazol-2-ylmethyl)piperazin-1-yl)methanone]
9 | – | < 25 | – | < 25 | – | < 25 | – | < 25 | – | – | – | – | – | – | – | – | – | – | Cc1cnn(C(=O)NCCCCc2ccccc2)c1 [Example 35, 4-Methyl-N-(4-phenylbutyl)-1H-pyrazole-1-carboxamide]
